Numbers after ± are expanded uncertainties.
Assay: mn = molality of the nth substance listed, in mol/kg
Settings: 101 kPa, Liquid; for speed of sound: Sing-around technique in a fixed-path interferometer; for mass density: Vibrating tube method

O=C[C@H](O)[C@H](O)[C@H](O)CO [D-ribose] + O showed a speed of sound (298.15 K, m1 = 0.0504) of 1498.8 ± 2.1 m/s, a speed of sound (298.15 K, m1 = 0.06883) of 1499.8 ± 2.1 m/s and a speed of sound (298.15 K, m1 = 0.08626) of 1500.7 ± 2.1 m/s. It also gave a speed of sound (298.15 K, m1 = 0.1107) of 1502 ± 2.1 m/s, a speed of sound (298.15 K, m1 = 0.136) of 1503.3 ± 2.1 m/s and a speed of sound (298.15 K, m1 = 0.1566) of 1504.4 ± 2.1 m/s. For the same compound, the mass density (298.15 K, m1 = 0.0504) was 999.789 ± 0.64 kg/m3, the mass density (298.15 K, m1 = 0.06883) was 1000.78 ± 0.64 kg/m3 and the mass density (298.15 K, m1 = 0.08626) was 1001.7 ± 0.64 kg/m3. For the same compound, the mass density (298.15 K, m1 = 0.1107) was 1003 ± 0.64 kg/m3, the mass density (298.15 K, m1 = 0.136) was 1004.33 ± 0.64 kg/m3 and the mass density (298.15 K, m1 = 0.1566) was 1005.39 ± 0.64 kg/m3. The speed of sound (303.15 K, m1 = 0.0504) was 1511.5 ± 2.1 m/s, the speed of sound (303.15 K, m1 = 0.06883) was 1512.3 ± 2.1 m/s and the speed of sound (303.15 K, m1 = 0.08626) was 1513.1 ± 2.1 m/s. The speed of sound (303.15 K, m1 = 0.1107) was 1514.3 ± 2.1 m/s, the speed of sound (303.15 K, m1 = 0.136) was 1515.5 ± 2.1 m/s and the speed of sound (303.15 K, m1 = 0.1566) was 1516.5 ± 2.1 m/s. It also gave a mass density (303.15 K, m1 = 0.0504) of 998.382 ± 0.63 kg/m3, a mass density (303.15 K, m1 = 0.06883) of 999.363 ± 0.64 kg/m3 and a mass density (303.15 K, m1 = 0.08626) of 1000.29 ± 0.64 kg/m3. For the same compound, the mass density (303.15 K, m1 = 0.1107) was 1001.58 ± 0.64 kg/m3, the mass density (303.15 K, m1 = 0.136) was 1002.89 ± 0.64 kg/m3 and the mass density (303.15 K, m1 = 0.1566) was 1003.96 ± 0.64 kg/m3. For the same compound, the speed of sound (308.15 K, m1 = 0.0504) was 1521.3 ± 2.1 m/s, the speed of sound (308.15 K, m1 = 0.06883) was 1522.2 ± 2.1 m/s and the speed of sound (308.15 K, m1 = 0.08626) was 1523 ± 2.1 m/s. It also gave a speed of sound (308.15 K, m1 = 0.1107) of 1524.1 ± 2.1 m/s, a speed of sound (308.15 K, m1 = 0.136) of 1525.3 ± 2.1 m/s and a speed of sound (308.15 K, m1 = 0.1566) of 1526.3 ± 2.1 m/s. For the same compound, the mass density (308.15 K, m1 = 0.0504) was 996.751 ± 0.63 kg/m3, the mass density (308.15 K, m1 = 0.06883) was 997.73 ± 0.63 kg/m3 and the mass density (308.15 K, m1 = 0.08626) was 998.651 ± 0.64 kg/m3. For the same compound, the mass density (308.15 K, m1 = 0.1107) was 999.932 ± 0.64 kg/m3, the mass density (308.15 K, m1 = 0.136) was 1001.25 ± 0.64 kg/m3 and the mass density (308.15 K, m1 = 0.1566) was 1002.31 ± 0.64 kg/m3. The speed of sound (313.15 K, m1 = 0.0504) was 1531.3 ± 2.1 m/s, the speed of sound (313.15 K, m1 = 0.06883) was 1532.1 ± 2.1 m/s and the speed of sound (313.15 K, m1 = 0.08626) was 1532.9 ± 2.1 m/s. It also gave a speed of sound (313.15 K, m1 = 0.1107) of 1534 ± 2.1 m/s, a speed of sound (313.15 K, m1 = 0.136) of 1535.1 ± 2.1 m/s and a speed of sound (313.15 K, m1 = 0.1566) of 1536 ± 2.1 m/s. For the same compound, the mass density (313.15 K, m1 = 0.0504) was 994.911 ± 0.63 kg/m3, the mass density (313.15 K, m1 = 0.06883) was 995.882 ± 0.63 kg/m3 and the mass density (313.15 K, m1 = 0.08626) was 996.793 ± 0.63 kg/m3. The mass density (313.15 K, m1 = 0.1107) was 998.065 ± 0.63 kg/m3, the mass density (313.15 K, m1 = 0.136) was 999.37 ± 0.64 kg/m3 and the mass density (313.15 K, m1 = 0.1566) was 1000.41 ± 0.64 kg/m3. The speed of sound (318.15 K, m1 = 0.0504) was 1538.2 ± 2.1 m/s, the speed of sound (318.15 K, m1 = 0.06883) was 1539 ± 2.1 m/s and the speed of sound (318.15 K, m1 = 0.08626) was 1539.7 ± 2.1 m/s. For the same compound, the speed of sound (318.15 K, m1 = 0.1107) was 1540.7 ± 2.1 m/s, the speed of sound (318.15 K, m1 = 0.136) was 1541.8 ± 2.1 m/s and the speed of sound (318.15 K, m1 = 0.1566) was 1542.7 ± 2.1 m/s. The mass density (318.15 K, m1 = 0.0504) was 992.887 ± 0.63 kg/m3, the mass density (318.15 K, m1 = 0.06883) was 993.852 ± 0.63 kg/m3 and the mass density (318.15 K, m1 = 0.08626) was 994.758 ± 0.63 kg/m3. It also gave a mass density (318.15 K, m1 = 0.1107) of 996.017 ± 0.63 kg/m3, a mass density (318.15 K, m1 = 0.136) of 997.311 ± 0.63 kg/m3 and a mass density (318.15 K, m1 = 0.1566) of 998.355 ± 0.63 kg/m3.

Reference: the NIST ThermoML archive (doi:10.1016/j.jct.2013.11.021)
